ChEMBL document CHEMBL1151070 (Bioorg Med Chem Lett, 1995)

Columns and labels:
[1] = target: T1, Protein kinase C beta type (Homo sapiens, UniProt P05771); experiment: Inhibition of human Protein kinase C beta 2
[2] = target: Protein kinase C alpha type (Homo sapiens, UniProt P17252); experiment: Inhibition of human Protein kinase C alpha
[3] = target: Protein kinase C delta type (Homo sapiens, UniProt Q05655); experiment: Inhibition of human Protein kinase C delta
[4] = target: Protein kinase C eta type (Homo sapiens, UniProt P24723); experiment: Inhibition of human Protein Kinase C eta
[5] = target: T2, Protein kinase C epsilon type (Homo sapiens, UniProt Q02156); experiment: Inhibition of human Protein kinase C epsilon
T2 sequence (Q02156 whole entry): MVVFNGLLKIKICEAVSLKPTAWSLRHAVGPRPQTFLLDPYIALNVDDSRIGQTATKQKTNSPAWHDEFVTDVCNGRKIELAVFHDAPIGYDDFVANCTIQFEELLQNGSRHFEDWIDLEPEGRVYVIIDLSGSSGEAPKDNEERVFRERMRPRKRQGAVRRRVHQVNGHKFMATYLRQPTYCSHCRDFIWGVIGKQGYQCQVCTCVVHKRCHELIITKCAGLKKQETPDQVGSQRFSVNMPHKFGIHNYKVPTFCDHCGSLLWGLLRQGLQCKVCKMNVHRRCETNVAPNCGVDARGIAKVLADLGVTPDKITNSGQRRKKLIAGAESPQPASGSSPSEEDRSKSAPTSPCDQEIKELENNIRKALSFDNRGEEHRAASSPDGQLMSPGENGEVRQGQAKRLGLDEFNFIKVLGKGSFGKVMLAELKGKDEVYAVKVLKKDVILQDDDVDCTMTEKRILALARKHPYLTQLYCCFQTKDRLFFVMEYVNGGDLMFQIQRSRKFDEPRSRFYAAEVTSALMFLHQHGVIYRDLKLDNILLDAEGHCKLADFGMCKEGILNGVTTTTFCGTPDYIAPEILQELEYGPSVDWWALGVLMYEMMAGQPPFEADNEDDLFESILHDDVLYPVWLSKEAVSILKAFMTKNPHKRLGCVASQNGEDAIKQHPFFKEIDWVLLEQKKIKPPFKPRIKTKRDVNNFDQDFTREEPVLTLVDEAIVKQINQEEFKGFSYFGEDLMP

[6] = target: Protein kinase C gamma type (Homo sapiens, UniProt P05129); experiment: Inhibition of human Protein kinase C gamma
[7] = target: T1, Protein kinase C beta type; experiment: Inhibition of human Protein kinase C beta 1
[8] = target: T3, Protein kinase C zeta type (Homo sapiens, UniProt Q05513); experiment: Inhibition of Protein kinase C zeta
T3 sequence (Q05513 whole entry): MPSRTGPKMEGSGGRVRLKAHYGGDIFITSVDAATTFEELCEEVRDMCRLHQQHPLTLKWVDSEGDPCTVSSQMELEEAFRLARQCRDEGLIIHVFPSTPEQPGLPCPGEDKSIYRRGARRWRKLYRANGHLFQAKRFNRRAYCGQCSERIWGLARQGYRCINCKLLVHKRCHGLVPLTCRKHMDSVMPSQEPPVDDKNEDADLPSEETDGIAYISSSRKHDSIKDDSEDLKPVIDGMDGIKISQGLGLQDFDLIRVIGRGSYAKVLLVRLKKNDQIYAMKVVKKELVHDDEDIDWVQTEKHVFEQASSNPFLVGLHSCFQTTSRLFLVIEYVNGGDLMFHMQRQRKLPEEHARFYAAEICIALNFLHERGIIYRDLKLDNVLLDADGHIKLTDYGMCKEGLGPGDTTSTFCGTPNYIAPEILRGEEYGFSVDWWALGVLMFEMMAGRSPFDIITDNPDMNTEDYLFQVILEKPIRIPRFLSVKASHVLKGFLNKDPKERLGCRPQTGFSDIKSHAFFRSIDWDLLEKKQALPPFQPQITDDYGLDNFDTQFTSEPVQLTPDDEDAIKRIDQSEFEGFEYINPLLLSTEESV

T1 sequence (P05771 whole entry): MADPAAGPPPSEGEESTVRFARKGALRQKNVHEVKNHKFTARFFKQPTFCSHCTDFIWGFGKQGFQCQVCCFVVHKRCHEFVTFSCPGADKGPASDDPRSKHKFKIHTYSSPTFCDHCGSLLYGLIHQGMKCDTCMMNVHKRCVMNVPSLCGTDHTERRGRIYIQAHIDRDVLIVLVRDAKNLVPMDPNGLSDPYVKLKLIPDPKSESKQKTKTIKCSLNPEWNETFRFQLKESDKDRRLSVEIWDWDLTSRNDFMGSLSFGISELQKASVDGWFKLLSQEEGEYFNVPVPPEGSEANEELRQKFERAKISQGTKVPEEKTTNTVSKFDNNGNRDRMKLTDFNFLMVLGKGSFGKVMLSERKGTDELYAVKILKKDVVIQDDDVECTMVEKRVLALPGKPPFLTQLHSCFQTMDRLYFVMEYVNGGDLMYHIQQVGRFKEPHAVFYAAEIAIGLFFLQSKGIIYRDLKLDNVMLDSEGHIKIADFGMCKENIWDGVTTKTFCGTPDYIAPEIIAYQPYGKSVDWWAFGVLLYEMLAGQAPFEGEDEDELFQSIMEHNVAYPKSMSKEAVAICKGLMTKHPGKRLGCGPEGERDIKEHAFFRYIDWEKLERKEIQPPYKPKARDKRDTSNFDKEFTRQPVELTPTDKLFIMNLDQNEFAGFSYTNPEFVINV
Protein kinase C delta type, sequence (Q05655 whole entry): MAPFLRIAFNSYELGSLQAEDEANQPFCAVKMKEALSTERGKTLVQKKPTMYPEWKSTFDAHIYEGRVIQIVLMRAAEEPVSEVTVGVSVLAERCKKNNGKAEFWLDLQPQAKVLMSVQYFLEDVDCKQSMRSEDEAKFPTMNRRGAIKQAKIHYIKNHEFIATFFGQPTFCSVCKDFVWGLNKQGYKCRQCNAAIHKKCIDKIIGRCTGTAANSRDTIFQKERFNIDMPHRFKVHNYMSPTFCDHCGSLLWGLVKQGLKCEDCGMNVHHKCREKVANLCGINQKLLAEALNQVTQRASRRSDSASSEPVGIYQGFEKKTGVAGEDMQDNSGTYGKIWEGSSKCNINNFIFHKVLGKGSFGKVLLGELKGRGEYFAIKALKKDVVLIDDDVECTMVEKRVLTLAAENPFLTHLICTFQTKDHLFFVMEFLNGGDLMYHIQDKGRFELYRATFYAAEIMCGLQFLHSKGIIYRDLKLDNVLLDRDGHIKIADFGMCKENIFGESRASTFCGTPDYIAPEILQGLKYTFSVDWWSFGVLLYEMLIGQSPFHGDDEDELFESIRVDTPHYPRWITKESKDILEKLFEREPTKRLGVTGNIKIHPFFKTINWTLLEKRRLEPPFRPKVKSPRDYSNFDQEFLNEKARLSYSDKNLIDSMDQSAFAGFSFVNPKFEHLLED
Protein kinase C eta type, sequence (P24723 whole entry): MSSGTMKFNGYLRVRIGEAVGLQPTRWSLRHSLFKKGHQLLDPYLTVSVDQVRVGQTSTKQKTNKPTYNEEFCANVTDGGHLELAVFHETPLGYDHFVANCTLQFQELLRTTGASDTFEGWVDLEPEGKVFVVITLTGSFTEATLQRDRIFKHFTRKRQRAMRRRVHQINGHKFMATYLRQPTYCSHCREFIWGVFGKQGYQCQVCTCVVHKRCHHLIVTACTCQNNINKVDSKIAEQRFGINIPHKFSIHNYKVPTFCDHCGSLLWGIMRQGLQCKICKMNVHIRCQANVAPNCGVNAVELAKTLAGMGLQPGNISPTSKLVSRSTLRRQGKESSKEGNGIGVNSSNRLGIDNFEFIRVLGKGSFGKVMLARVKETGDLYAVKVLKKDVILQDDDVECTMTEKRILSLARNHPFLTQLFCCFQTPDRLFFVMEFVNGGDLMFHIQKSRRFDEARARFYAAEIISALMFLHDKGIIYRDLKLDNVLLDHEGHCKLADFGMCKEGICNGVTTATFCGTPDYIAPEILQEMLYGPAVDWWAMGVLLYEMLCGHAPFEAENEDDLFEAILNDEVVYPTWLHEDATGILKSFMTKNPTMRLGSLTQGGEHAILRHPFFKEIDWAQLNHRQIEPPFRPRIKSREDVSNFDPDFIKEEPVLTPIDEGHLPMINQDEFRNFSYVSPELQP

SMILES	IC50 [1] [nM]	IC50 [2] [nM]	IC50 [3] [nM]	IC50 [4] [nM]	IC50 [5] [nM]	IC50 [6] [nM]	IC50 [7] [nM]	IC50 [8] [nM]
O=C(N[C@@H]1CNCCC[C@H]1OC(=O)c1cc(O)c(C(=O)c2c(O)cccc2C(=O)O)c(O)c1)c1ccc(O)cc1 (racemic) [BALANOL]	40	70	30	–	–	–	–	–
O=C(N[C@H]1C[C@@H](O)C[C@H]1OC(=O)c1cc(O)c(C(=O)c2c(O)cccc2C(=O)O)c(O)c1)c1ccc(O)cc1.O=C(N[C@H]1C[C@H](O)C[C@H]1OC(=O)c1cc(O)c(C(=O)c2c(O)cccc2C(=O)O)c(O)c1)c1ccc(O)cc1 (single isomer, unassigned)	10	40	5	3	100	20	20	–
NC[C@@H]1C[C@H](NC(=O)c2ccc(O)cc2)[C@H](OC(=O)c2cc(O)c(C(=O)c3c(O)cccc3C(=O)O)c(O)c2)C1	5	20	20	3	30	10	5	3100
N[C@@H]1C[C@H](NC(=O)c2ccc(O)cc2)[C@H](OC(=O)c2cc(O)c(C(=O)c3c(O)cccc3C(=O)O)c(O)c2)C1	2	20	5	2	10	5	4	1200
O=C(N[C@H]1C[C@@H](CO)C[C@H]1OC(=O)c1cc(O)c(C(=O)c2c(O)cccc2C(=O)O)c(O)c1)c1ccc(O)cc1	20	80	20	20	260	45	60	–
NC[C@H]1C[C@H](NC(=O)c2ccc(O)cc2)[C@H](OC(=O)c2cc(O)c(C(=O)c3c(O)cccc3C(=O)O)c(O)c2)C1	4	20	6	3	30	5	4	2800
O=C(N[C@H]1C[C@H](CO)C[C@H]1OC(=O)c1cc(O)c(C(=O)c2c(O)cccc2C(=O)O)c(O)c1)c1ccc(O)cc1	3	10	4	2	160	5	4	–
O=C(N[C@H]1C[C@H](O)C[C@H]1OC(=O)c1cc(O)c(C(=O)c2c(O)cccc2C(=O)O)c(O)c1)c1ccc(O)cc1	20	50	6	4	150	30	20	–
